Source: US20120065173A1 (priority 2006, published 2012)
pIC50: −log10 of the molar value.

target: T1, recombinant human GR (Homo sapiens, UniProt P04150); experiment: Human Glucocorticoid Receptor (GR) Assay, fluorescence polarization (GRhuFL_FP_v2); assay type: binding; conditions: GS Red tracer, 2 hours at room temperature, 100% control 10 μM Dexamethasone
T1 construct: purchased Panvera/Invitrogen P2812 (kit P2893)
T1 sequence (P04150 1-777): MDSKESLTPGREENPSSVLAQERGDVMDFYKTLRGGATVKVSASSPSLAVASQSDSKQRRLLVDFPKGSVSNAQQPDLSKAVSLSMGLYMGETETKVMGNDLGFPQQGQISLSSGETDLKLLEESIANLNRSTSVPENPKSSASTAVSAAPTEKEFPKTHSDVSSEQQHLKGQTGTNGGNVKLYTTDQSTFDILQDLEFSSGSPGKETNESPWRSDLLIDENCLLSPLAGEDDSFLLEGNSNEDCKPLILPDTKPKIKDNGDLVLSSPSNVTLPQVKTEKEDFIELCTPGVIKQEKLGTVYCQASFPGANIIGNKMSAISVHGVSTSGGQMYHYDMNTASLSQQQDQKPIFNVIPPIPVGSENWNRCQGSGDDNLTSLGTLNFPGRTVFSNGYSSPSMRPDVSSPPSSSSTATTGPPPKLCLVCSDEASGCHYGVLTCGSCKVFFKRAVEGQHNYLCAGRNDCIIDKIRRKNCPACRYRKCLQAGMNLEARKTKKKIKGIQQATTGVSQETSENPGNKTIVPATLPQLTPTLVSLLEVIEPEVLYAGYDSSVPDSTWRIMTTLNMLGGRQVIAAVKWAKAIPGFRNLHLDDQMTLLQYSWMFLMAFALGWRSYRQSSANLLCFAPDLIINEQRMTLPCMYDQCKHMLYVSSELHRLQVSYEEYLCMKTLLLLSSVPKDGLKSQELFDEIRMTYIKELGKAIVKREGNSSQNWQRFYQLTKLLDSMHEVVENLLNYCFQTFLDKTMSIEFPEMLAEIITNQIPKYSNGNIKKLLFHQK
Protocol: Human Glucocorticoid Receptor (GR) Assay
The assay is based on a commercial kit from Panvera/Invitrogen (Part number P2893). The assay technology is fluorescence polarization. […] The GR and Stabilizing Peptide reagents are stored at −70° C. while the GS Red is stored at −20° C. Also included in the kit are 1M DTT (Panvera, Part number P2325, stored at −20° C.) and GR Screening buffer 10× (Panvera, Part number P2814, stored at −70° C. initially but once thawed stored at room temperature). Avoid repeated freeze/thaws for all reagents. The GR Screening buffer 10× comprises 100 mM potassium phosphate, 200 mM sodium molybdate, 1 mM EDTA and 20% DMSO.
0% control was 100% DMSO and 100% control was 10 μM Dexamethasone. Background solution (8 μL; assay buffer 10×, Stabilizing Peptide, DTT and ice cold MQ water) was added to the background wells. GS Red solution (7 μL; assay buffer 10×, Stabilizing Peptide, DTT, GS Red and ice cold water) was added to all wells except background wells. GR solution (7 μL; assay buffer 10×, Stabilizing Peptide, DTT, GR and ice cold water) was added to all wells. The plate was sealed and incubated in a dark at room temperature for 2 hours.

In order of rising pIC50:
1. C[C@H](NS(C)(=O)=O)[C@@H](c1ccccc1)S(=O)(=O)c1ccc2c(cnn2-c2ccc(F)cc2)c1 [Example 39]  6.55
2. O=S(=O)(NC[C@@H](Oc1ccc2c(cnn2-c2ccc(F)cc2)c1)c1ccccc1)C1CC1 [Example 41, N-[(2S)-2-[1-(4-fluorophenyl)indazol-5-yl]oxy-2-phenyl-ethyl]cyclopropanesulfonamide]  6.60
3. CC(C)n1ncc2cc(O[C@H](c3ccccc3)[C@H](C)NS(=O)(=O)C3CC3)ccc21 [Example 33, N-[(1R,2S)-1-phenyl-1-(1-propan-2-ylindazol-5-yl)oxy-propan-2-yl]cyclopropanesulfonamide]  6.77
4. C[C@H](NS(=O)(=O)C1CC1)[C@H](Oc1cccc2c1cnn2-c1ccc(F)cc1)c1ccccc1 [Example 3, N-[(1R,2S)-1-[1-(4-fluorophenyl)indazol-4-yl]oxy-1-phenyl-propan-2-yl]cyclopropanesulfonamide]  7.05
5. O=S(=O)(NC[C@H](Oc1ccc2c(cnn2-c2ccc(F)cc2)c1)c1ccccc1)C1CC1 [Example 40, N-[(2R)-2-[1-(4-fluorophenyl)indazol-5-yl]oxy-2-phenyl-ethyl]cyclopropanesulfonamide]  7.89
6. C[C@H](NS(=O)(=O)C1CCCC1)[C@H](Oc1ccc2c(cnn2-c2ccc(F)cc2)c1)c1ccccc1 [Example 21, N-[(1R,2S)-1-[1-(4-fluorophenyl)indazol-5-yl]oxy-1-phenyl-propan-2-yl]cyclopentanesulfonamide]  8.00
7. C[C@H](NS(=O)(=O)CC1CCCCC1)[C@H](Oc1ccc2c(cnn2-c2ccc(F)cc2)c1)c1ccccc1 [Example 23, 1-Cyclohexyl-N-[(1R,2S)-1-[1-(4-fluorophenyl)indazol-5-yl]oxy-1-phenyl-propan-2-yl]methanesulfonamide]  8.02
8. C[C@H](NS(=O)(=O)C1CC1)[C@H](Oc1ccc2c(cnn2C2CCCC2)c1)c1ccccc1 [Example 32, N-[(1R,2S)-1-(1-cyclopentylindazol-5-yl)oxy-1-phenyl-propan-2-yl]cyclopropanesulfonamide]  8.12
9. CCCCCCS(=O)(=O)N[C@@H](C)[C@H](Oc1ccc2c(cnn2-c2ccc(F)cc2)c1)c1ccccc1 [Example 24, N-[(1R,2S)-1-[1-(4-fluorophenyl)indazol-5-yl]oxy-1-phenyl-propan-2-yl]hexane-1-sulfonamide]  8.12
10. COc1ccc(OCCCS(=O)(=O)N[C@@H](C)[C@H](Oc2ccc3c(cnn3-c3ccc(F)cc3)c2)c2ccccc2)cc1 [Example 11, N-[(1R,2S)-1-[1-(4-fluorophenyl)indazol-5-yl]oxy-1-phenyl-propan-2-yl]-3-(4-methoxyphenoxy)propane-1-sulfonamide]  8.16
11. C[C@H](NS(=O)(=O)Cc1ccccc1)[C@H](Oc1ccc2c(cnn2-c2ccc(F)cc2)c1)c1ccccc1 [Example 6, N-[(1R,2S)-1-[1-(4-fluorophenyl)indazol-5-yl]oxy-1-phenyl-propan-2-yl]-1-phenyl-methanesulfonamide]  8.23
12. CCCCS(=O)(=O)N[C@@H](C)[C@H](Oc1ccc2c(cnn2-c2ccc(F)cc2)c1)c1ccccc1 [Example 15]  8.27
13. COC(=O)CCS(=O)(=O)N[C@@H](C)[C@H](Oc1ccc2c(cnn2-c2ccc(F)cc2)c1)c1ccccc1 [Example 19, Methyl 3-[[(1R,2S)-1-[1-(4-fluorophenyl)indazol-5-yl]oxy-1-phenyl-propan-2-yl]sulfamoyl]propanoate]  8.29
14. C[C@H](NS(=O)(=O)C1CC1)[C@H](Oc1ccc2c(cnn2-c2ccc(F)nc2)c1)c1ccccc1 [Example 4, N-[(1R,2S)-1-[1-(6-fluoropyridin-3-yl)indazol-5-yl]oxy-1-phenyl-propan-2-yl]cyclopropanesulfonamide]  8.31
15. C[C@H](NS(=O)(=O)N(C)C)[C@H](Oc1ccc2c(cnn2-c2ccc(F)cc2)c1)c1ccccc1 [Example 8]  8.34
16. CC(NS(=O)(=O)C1CC1)C(Oc1cc2cnn(-c3ccc(F)cc3)c2cc1Cl)c1ccc(F)cc1 (racemic) [Example 36, N-[(1RS,2RS)-1-[6-chloro-1-(4-fluorophenyl)indazol-5-yl]oxy-1-(4-fluorophenyl)propan-2-yl]cyclopropanesulfonamide]  8.37
17. C[C@H](NS(=O)(=O)C1CC1)[C@H](Oc1ccc2c(cnn2-c2ccc(F)cc2)c1)c1cnc2ccccc2c1 [Example 42, N-((1R,2S)-1-(1-(4-fluorophenyl)-1H-indazol-5-yloxy)-1-(quinolin-3-yl)propan-2-yl)cyclopropanesulfonamide]  8.44
18. C[C@H](NS(=O)(=O)C1CC1)[C@H](Oc1ccc2c(cnn2-c2ccc(F)cc2)c1)c1ccc2c(c1)OCCO2 [Example 43, N-((1R,2S)-1-(2,3-dihydrobenzo[b][1,4]dioxin-6-yl)-1-(1-(4-fluorophenyl)-1H-indazol-5-yloxy)propan-2-yl)cyclopropanesulfonamide]  8.64
